Here are results for 22 molecules from patent US20210315893A1 (Galapagos NV, priority 2017, published 2021).

For assay [1], the target named is T1, human GPCR sphingosine 1-phosphate receptor 2 (Homo sapiens, UniProt O95136).
T1 construct: host or cells: CHO
Nature of the assay: S1PR2 antagonist Ca2+ flux assay. Format: cell-based. Particulars: antagonist mode, CHO-S1PR2 cells, S1P at EC80, Ca2+ fluorescence; read-out: S1P2 EC50 (nM), S1P2 antagonist EC50. As for the experimental part:
Triggering of S1PR2 by administration of Sphingosine-1-phosphate leads to a transient increase in intracellular Ca^2+. The Ca^2+ flux assays are measuring the release of Ca^2+ intracellularly by use of a Ca^2+ sensitive fluorescent dye. The assay is firstly run in agonist mode (incubation of compounds alone) to ensure that the Ca^2+ released measured is not caused by the test compound having an agonistic effect. Then the assay is continued in antagonist mode (Sphingosine-1-Phosphate added to incubated medium containing the test compounds).
CHO cells stably overexpressing human GPCR sphingosine 1-phosphate receptor 2 (CHO-S1PR2 Perkin Elmer; ES-594-A) are seeded from a frozen stock in 384 wells sterile microplates (50 μL; 7,500 cells/well) and are incubated overnight at 37° C. and 5% CO2. The next day cells are washed twice with starvation medium (F-12 Ham's medium containing 0.1% BSA (Fatty acid free: FAF)) and left in 25 μL starvation medium for 1 h at 37° C., 5% CO2. After this starvation cells are incubated with 25 μL buffer containing the Ca^2+-sensitive fluorescent dye (0.5 mg Fluo8+125 mg Allura Red in 100 mL of 1% DMSO, in HBSS+20 mM Hepes+5 mM probenecid). The cells are incubated for an additional 1 h after which 10 μL compounds, diluted in HBSS buffer with 20 mM Hepes and 0.1% BSA (FAF), are added to the cells and intracellular Ca2+ changes are immediately measured by reading fluorescence during 3 min (FDSS/pCELL reader). The ratio of the maximal fluorescence over the background fluorescence before compound injection is used to determine compound response.
After readout of the agonist activity, the plates are incubated for 15 min at 37° C. and 5% CO2. Then, cells are stimulated with 10 μL Sphingosine-1-Phosphate (S1P) (Avanti Polar lipids-860492P) at its EC80 concentration. Intracellular Ca2+ changes are immediately measured by reading fluorescence during 3 min (FDSS/pCELL reader). The ratio of the maximal fluorescence over the background fluorescence before compound injection is used to determine compound response.
The obtained ratio's for agonist and antagonist readout were normalized versus vehicle and EC 100 of S1P ascontrols for agonist mode and versus vehicle and […]. From these normalized data EC50 of the compounds are derived.
Background: Calcium flux is commonly read through the fluorescence of an indicator in the cells.

The target of assay [2] is T2, S1PR2 (Homo sapiens, UniProt O95136).
T2 construct: expressed in transfected cells
Nature of the assay: S1PR2 binding assay (competition with radioactively labeled S1P, SpA). Particulars: membranes from stable cell line over expressing S1PR2, SpA beads; read-out: S1P2 EC50 (nM), S1PR2 binding EC50. As for the experimental part:
The following assay can be used for determination of S1PR2 binding. The binding assay measures the potential to compete with radioactively labeled S1P for binding to the receptor.
The assay is performed in a96 well plate where the following reagents are added. First 50 μL compound is added into the assay plate, followed by addition of 100 μL ofa mixture consisting of membrane and Scintillation proximity Assay (SpA) beads [mixture consists […] membranes derived from stable cell line over expressing SPR2, 0.5 mg/well Polyvinyltoluene-Wheat Germ-Agglutinin (PVT-WGA) beads (Perkin Elmer, RPNQOO1)]. All components are diluted in assay buffer containing 20 mM Tris pH 7.5; 10 mM MgCl2; 100 mM NaCl; 0.4% BSA FAF; 1 mM Na3VO4) and incubated for 15 min until addition to the assay plate. Subsequently, 50 ul of radioactively labeled S1P is added to the wells (Sphingosine, D-erythro-[3-3H] 1-phosphate; ARC; ART0778). After an incubation for 2 h at room temperature, plates are centrifuged at 2000 rpm during 20 min. Plates are read on a Topcount reader (Perkin Elmer) immediately after centrifugation (readout time, 1 min/well).

Structures are written as SMILES.

T2 sequence (O95136 whole entry): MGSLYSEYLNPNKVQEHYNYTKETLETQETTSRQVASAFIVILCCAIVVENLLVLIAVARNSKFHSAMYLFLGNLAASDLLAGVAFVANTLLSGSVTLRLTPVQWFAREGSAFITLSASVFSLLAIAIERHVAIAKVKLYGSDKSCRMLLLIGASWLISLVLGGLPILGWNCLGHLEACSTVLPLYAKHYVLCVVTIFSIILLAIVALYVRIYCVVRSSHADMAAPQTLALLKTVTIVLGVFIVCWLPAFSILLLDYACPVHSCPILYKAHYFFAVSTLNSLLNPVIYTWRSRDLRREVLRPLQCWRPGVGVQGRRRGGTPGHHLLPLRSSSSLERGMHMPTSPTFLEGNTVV
T1 sequence (O95136 whole entry): as above

The EC50 is the concentration needed to bring the measured effect to its halfway point. As to `N#Cc1cc2[nH]c(Cc3nn(CC(=O)N4CCCC(O)C4)c(=O)c4ccccc34)nc2cc1OCC(F)F` (stereo not drawn) [Compound 231, 6-(2,2-difluoroethoxy)-2-[[3-[2-(3-hydroxy-1-piperidyl)-2-oxo-ethyl]-4-oxo-phthalazin-1-yl]methyl]-3H-benzimidazole-5-carbonitrile], the results for the EC50 in assay [1] and in assay [2] were 77.9 nM and 453 nM, respectively. As to `O=c1c2ccccc2c(Cc2nc3cc(Cl)c(OC(F)(F)F)cc3[nH]2)nn1CC1CCCNC1` (stereo not drawn) [Compound 58, 4-[[6-chloro-5-(trifluoromethoxy)-1H-benzimidazol-2-yl]methyl]-2-(3-piperidylmethyl)phthalazin-1-one], the EC50 in assay [1] was found to be 890 nM; in assay [2], 1100 nM. As for `CCOc1ccc2cn(Cc3nn(CC(=O)O)c(=O)c4ccccc34)nc2c1Cl` [compound 22, 2-[4-[(7-chloro-6-ethoxy-indazol-2-yl)methyl]-1-oxo-phthalazin-2-yl]acetic acid], the concentration giving a half-maximal response (EC50) in assay [1] is not below 19900 nM. Same read-out and setting: as for `CS(=O)(=O)NC(=O)Cn1nc(Cc2nc3cc(OCC(F)F)c(F)cc3[nH]2)c2ccccc2c1=O` [Compound 248, 2-[4-[[5-(2,2-difluoroethoxy)-6-fluoro-1H-benzimidazol-2-yl]methyl]-1-oxo-phthalazin-2-yl]-N-methylsulfonyl-acetamide], the figure is 89.6 nM.

For `CCOc1cc2nc(Cc3nn(CC(=O)O)c(=O)c4ccccc34)[nH]c2cc1F` [Compound 129, 2-[4-[(5-ethoxy-6-fluoro-1H-benzimidazol-2-yl)methyl]-1-oxo-phthalazin-2-yl]acetic acid], the EC50 in assay [1] came out at 79.3 nM; in assay [2] it was 1390 nM. On the same counts, the results for `N#Cc1cc2nc(Cc3nn(CC(=O)N4CCOCC45CCC5)c(=O)c4ccccc34)[nH]c2cc1OCC(F)F` [Compound 189, 6-(2,2-difluoroethoxy)-2-[[3-[2-(6-oxa-9-azaspiro[3.5]nonan-9-yl)-2-oxo-ethyl]-4-oxo-phthalazin-1-yl]methyl]-1H-benzimidazole-5-carbonitrile] are 143 nM and 558 nM. On the same counts, the results for `N#Cc1cc2[nH]c(Cc3nn(CC(=O)NCCC(F)(F)F)c(=O)c4ccccc34)nc2cc1OCC(F)F` [Compound 224, 2-[4-[[6-cyano-5-(2,2-difluoroethoxy)-1H-benzimidazol-2-yl]methyl]-1-oxo-phthalazin-2-yl]-N-(3,3,3-trifluoropropyl)acetamide] are 19.6 nM and 232 nM. In the same order, the values of `CC(C(=O)NS(C)(=O)=O)n1nc(Cc2nc3cc(OCC4CC4)c(Cl)cc3[nH]2)c2ccccc2c1=O` (stereo not drawn) [Compound 246, N-{2-[4-(6-Chloro-5-cyclopropylmethoxy-1H-benzoimidazol-2-ylmethvl)-1-oxo-1H-phthalazin-2-yl]-propionyl}-methanesulfonamide] are 13.6 nM and 775 nM. Consider `N#Cc1cc2[nH]c(Cc3nn(CC(=O)NCC(F)F)c(=O)c4ccccc34)nc2cc1OCC(F)F` [Compound 223, 2-[4-[[6-cyano-5-(2,2-difluoroethoxy)-1H-benzimidazol-2-yl]methyl]-1-oxo-phthalazin-2-yl]-N-(2,2-difluoroethyl)acetamide], for which the half-maximal effective concentration (EC50) in assay [1] turned out to be 68.8 nM; in assay [2], 330 nM.

Consider `CC1(COc2cc3nc(Cc4nn(CC(=O)NS(C)(=O)=O)c(=O)c5ccccc45)[nH]c3cc2Cl)CC1` [Compound 250, 2-[4-[[6-chloro-5-[(1-methylcyclopropyl)methoxy]-1H-benzimidazol-2-yl]methyl]-1-oxo-phthalazin-2-yl]-N-methylsulfonyl-acetamide], for which the EC50 in assay [1] worked out at 9.39 nM. Regarding `CC(C)(O)C1CCCN(C(=O)Cn2nc(Cc3nc4cc(OCC(F)F)c(C#N)cc4[nH]3)c3ccccc3c2=O)C1` (stereo not drawn) [Compound 237, 6-(2,2-difluoroethoxy)-2-[[3-[2-[3-(1-hydroxy-1-methyl-ethyl)-1-piperidyl]-2-oxo-ethyl]-4-oxo-phthalazin-1-yl]methyl]-3H-benzimidazole-5-carbonitrile], the EC50 in assay [1] stood at 55.8 nM; in assay [2], 650 nM.

Turning to `O=c1c2ccccc2c(Cc2nc3cc(Cl)c(OC(F)(F)F)cc3[nH]2)nn1C1CCCC1` [Compound 24, 4-[[5-chloro-6-(trifluoromethoxy)-1H-benzimidazol-2-yl]methyl]-2-cyclopentyl-phthalazin-1-one], in assay [2], the 50% effective concentration (EC50) came to 8450 nM.

For the molecule `CCOc1ccc2nn(Cc3nn(CC(=O)O)c(=O)c4ccccc34)cc2c1Cl` [Compound 254, 2-[4-[(4-chloro-5-ethoxy-indazol-2-yl)methyl]-1-oxo-phthalazin-2-yl]acetic acid], the concentration for a half-maximal effect (EC50) in assay [1] was not below 19900 nM. Same read-out and setting: under `CS(=O)(=O)NC(=O)Cn1nc(Cc2nc3cc(OCC4(C#N)CC4)c(Cl)cc3[nH]2)c2ccccc2c1=O` [Compound 249, 2-[4-[[6-chloro-5-[(1-cyanocyclopropyl)methoxy]-1H-benzimidazol-2-yl]methyl]-1-oxo-phthalazin-2-yl]-N-methylsulfonyl-acetamide] stands 10.2 nM; under `N#Cc1cc2[nH]c(Cc3nn(CC(=O)N4CCOCC4)c(=O)c4ccccc34)nc2c(Cl)c1OCC(F)F` [Compound 53, 7-chloro-6-(2,2-difluoroethoxy)-2-[[3-(2-morpholino-2-oxo-ethyl)-4-oxo-phthalazin-1-yl]methyl]-3H-benzimidazole-5-carbonitrile], 2360 nM.

As for `O=c1c2ccccc2c(Cc2nc3cc(Cl)c(OC(F)(F)F)cc3[nH]2)nn1CC1CCCCO1` (stereo not drawn) [Compound 35, 4-[[6-chloro-5-(trifluoromethoxy)-1H-benzimidazol-2-yl]methyl]-2-(tetrahydropyran-2-ylmethyl)phthalazin-1-one], the EC50 in assay [2] is 5410 nM. The same measure, in the same setting: as for `N#Cc1cc2[nH]c(Cc3nn(CC(=O)N4CCC(N5CCOCC5)CC4)c(=O)c4ccccc34)nc2cc1OCC(F)F` [Compound 238, 6-(2,2-difluoroethoxy)-2-[[3-[2-(4-morpholino-1-piperidyl)-2-oxo-ethyl]-4-oxo-phthalazin-1-yl]methyl]-3H-benzimidazole-5-carbonitrile], the figure is 5240 nM. For the molecule `O=c1c2ccccc2c(Cc2nc3cc(Cl)c(OC(F)(F)F)cc3[nH]2)nn1C1CCC1` [Compound 26, 4-[[5-chloro-6-(trifluoromethoxy)-1H-benzimidazol-2-yl]methyl]-2-cyclobutyl-phthalazin-1-one], the EC50 in assay [1] turned out to be 889 nM.

For the molecule `N#Cc1cc2[nH]c(Cc3nn(CC(=O)N4CCN(CCO)CC4)c(=O)c4ccccc34)nc2cc1OCC(F)F` [Compound 225, 6-(2,2-difluoroethoxy)-2-[[3-[2-[4-(2-hydroxyethyl)piperazin-1-yl]-2-oxo-ethyl]-4-oxo-phthalazin-1-yl]methyl]-3H-benzimidazole-5-carbonitrile], in assay [1], the EC50 was found to be 388 nM. Still for that read-out and setting: under `CCOc1cc2[nH]c(Cc3nn(CC(=O)O)c(=O)c4ccccc34)nc2cc1C#N` [Compound 138, 2-[4-[(5-cyano-6-ethoxy-1H-benzimidazol-2-yl)methyl]-1-oxo-phthalazin-2-yl]acetic acid] stands 45 nM; under `CC(C)(C)C(=O)Cn1nc(Cc2nc3cc(Cl)c(OC(F)(F)F)cc3[nH]2)c2ccccc2c1=O` [Compound 44, 4-[[6-chloro-5-(trifluoromethoxy)-1H-benzimidazol-2-yl]methyl]-2-(3,3-dimethyl-2-oxo-butyl)phthalazin-1-one], 2090 nM. `O=C(Cn1nc(Cc2nc3cc(OCC(F)F)c(Cl)cc3[nH]2)c2c(C3CC3)cccc2c1=O)N1CCOCC1` [Compound 48, 4-[[6-chloro-5-(2,2-difluoroethoxy)-1H-benzimidazol-2-yl]methyl]-5-cyclopropyl-2-(2-morpholino-2-oxo-ethyl)phthalazin-1-one]: in assay [1], the EC50 came out at 98.4 nM.
